From US20110105397A1, “METHOD FOR TREATING HEART FAILURE WITH STRESSCOPIN-LIKE PEPTIDES” (priority 2009, published 2011)
pKi: −log10 of the molar value. “And” between values parts separate entries of the source, which are not always exact repeats. Equal values may be shown once.

Key:
h-CRHR2b = target: T1, h-CRHR2b (Homo sapiens, UniProt Q13324); conditions: h-CRHR2b transfected HEK-293 cells, approximated values from concentration response curves (Hsu et al., 2001); cited from earlier work
T1 sequence (Q13324 1-438 isoform Q13324-2): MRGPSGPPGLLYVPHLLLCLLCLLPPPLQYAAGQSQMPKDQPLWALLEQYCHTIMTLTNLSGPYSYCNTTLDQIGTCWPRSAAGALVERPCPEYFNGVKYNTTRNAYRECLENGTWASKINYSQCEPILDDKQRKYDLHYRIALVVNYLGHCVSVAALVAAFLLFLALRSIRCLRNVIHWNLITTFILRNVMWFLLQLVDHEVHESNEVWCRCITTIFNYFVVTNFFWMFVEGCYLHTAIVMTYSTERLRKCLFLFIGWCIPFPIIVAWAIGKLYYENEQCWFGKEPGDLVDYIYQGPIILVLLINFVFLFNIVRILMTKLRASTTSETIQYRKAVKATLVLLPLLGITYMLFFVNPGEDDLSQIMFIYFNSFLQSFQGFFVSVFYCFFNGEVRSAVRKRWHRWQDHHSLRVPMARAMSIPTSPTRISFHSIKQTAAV

CRHR1 [1] = target: T2, CRHR1 (Homo sapiens, UniProt P34998); test: CRHR1 radioligand binding, [125I]-(Tyr0)-sauvagine; parameters: host or cells: cell membranes
T2 sequence (P34998 24-415): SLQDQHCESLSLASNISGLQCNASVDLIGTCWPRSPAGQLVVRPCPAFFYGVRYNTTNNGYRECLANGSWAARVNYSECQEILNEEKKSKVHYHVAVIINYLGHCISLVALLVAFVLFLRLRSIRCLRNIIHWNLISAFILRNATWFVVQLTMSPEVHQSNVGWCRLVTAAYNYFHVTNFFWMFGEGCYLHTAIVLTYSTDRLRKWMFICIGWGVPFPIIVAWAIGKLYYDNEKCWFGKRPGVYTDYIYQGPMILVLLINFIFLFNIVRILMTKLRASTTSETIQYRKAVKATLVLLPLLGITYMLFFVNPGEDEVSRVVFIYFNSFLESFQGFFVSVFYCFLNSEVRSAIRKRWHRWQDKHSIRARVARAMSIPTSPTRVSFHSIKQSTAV
Description: The solution was then homogenized with a Polytron tissue grinder at a setting of 10 and 7×3 s (Brinkmann Instruments, Westbury, N.Y.). […] The bound radioactivity was separated by filtration using a Multiscreen Resist manifold (Millipore Corp., Billerica, Mass., U.S.A). The filters were washed three times with ice-cold PBS at pH 7.5 and radioactivity retained on the filters was quantified by its liquid scintillation measured by a TopCount counter (Packard BioScience, Boston, Mass., U.S.A). All experiments were performed in triplicate.

CRHR1 [2] = target: T2, CRHR1; test: cAMP assay, h-CRHR1 transfected SK-N-MC cells; format: cell-based; parameters: expressed in transfected cells; conditions: Table 11; for EC50: h-CRHR1 transfected SK-N-MC cells, 1 hr at 37° Celsius, read-out: pA50 (Experimental) (converted)
Procedure: Human CRHR1 (accession number X72304) or CRHR2 (accession number U34587) were cloned into pcDNA3.1/Zeo expression vector and stably transfected into SK—N-MC cells by electroporation. Cells were maintained in MEM w/Earl's Salt with 10% FBS, 50 I.U. penicillin, 50 μg/ml streptomycin, 2 mM L-glutamine, 1 mM sodium pyruvate and 0.1 mM non-essential amino acids, 600 μg/ml G418. Cells were grown at 37° C. in 5% CO2
Cells were plated in 96-well tissue culture dishes (Biocoat from BD Biosciences) overnight at 50,000 cell/well. Cells were washed with PBS then resuspended in DMEM F-12 without phenol red, containing 10 μM isobutylmethylxanthine (IBMX). Cells were incubated with the peptides at concentrations ranging from 1 pM to 10 μM for 60 min at 37° Celsius. […] Forskolin (10 μM), a direct stimulant of adenylate cyclase, was used as positive control. The assays were stopped by the addition of 0.5 M HCl and mixing by orbital rotation for 2 h at 4° Celsius.
Transfected SK—N-MC cells were plated in 96-well Biocoat tissue culture dishes (BD Biosciences, San Jose, Calif., U.S.A) overnight at 50,000 cell/well. Cells were first washed with PBS and then suspended with DMEM/F-12 without phenol red, containing […]. Suspended cells were transferred into a 96-well flash plate coated with scintillant fluid. Cells were incubated with peptides ranging from 1 pM to 1 μM, for 60 min, at 37° Celsius. Forskolin at 10 μM was used as positive control. After ligand stimulation, cells were lysed by the addition of 0.5M HCl and mixed by orbital rotation for 2 h at 4° Celsius in order to release intracellular cAMP into the media.
Media containing released intracellular cAMP was transferred to a 96-well flash plate coated with scintillant fluid containing an anti-cAMP antibody. […] To generate a standard curve, cAMP ranging from 2.5 to 250 pmoles/ml was included in the experiment.
Individual agonist concentration-response curve data were fitted to the Hill equation, see formula below, using GraphPad Prism (Graphpad Software, La Jolla, Calif., U.S.A.), to provide estimates of agonist concentration needed to generate one-half maximal response (A50), and the maximal asymptote (α) and Hill slope (nH) parameters. In this equation, [A] is the agonist concentration and E is the measured effect:
For display purposes the mean fitted parameter estimates were used to generate a single E/[A] curve shown superimposed on the mean experimental data. Potency estimates for agonists, pA50, are expressed as the negative logarithm of the midpoint of each curve and listed with their standard error of measurement (SEM).
Human and rat peptides (see Table 10) were used on the stimulation of h-CRHR1 or h-CRHR2 transfected SK—N-MC cells in the cAMP flash plate assay. Peptides were incubated for 1 hr at 37° Celsius. Curves were calculated using non-linear regression sigmoidal concentration-response analysis calculation in GraphPad Prism.

| Compound | Published pA50 (h-CRHR2b) | pKi (CRHR1 [1]) | nH (CRHR1 [1]) | EC50 (CRHR1 [2]) | nH (Hill slope) (CRHR1 [2]; h-CRHR1, listed as h-SRP) | nH (Hill slope) (CRHR1 [2]; h-CRHR1) | αmax (maximal asymptote) (CRHR1 [2]; h-CRHR1) |
| --- | --- | --- | --- | --- | --- | --- | --- |
| H-TKFTLSLDVPTNIMNLLFNIAKAKNLRAQAAANAHLMAQI-NH2 [SEQ ID NO: 1, TKFTLSLDVPTNIMNLLFNIAKAKNLRAQAAANAHLMAQI-NH2] | ~9^4 | 4.60 | 1.16 ± 0.65 | > 10000 nM | – | – | – |
| H-HPGSRIVLSLDVPIGLLQILLEQARARAAREQATTNARILARV-NH2 [SEQ ID NO: 117, HPGSRIVLSLDVPIGLLQILLEQARARAAREQATTNARILARV-NH2, reference compound] | ~9^4 | – | – | 457 nM and 631 nM and 525 nM | 1.61 and 1.33 and 1.26 | – | – |
| CC[C@H](C)[C@H](NC(=O)[C@H](CO)NC(=O)[C@H](CC(C)C)NC(=O)[C@@H]1CCCN1C(=O)[C@@H]1CCCN1C(=O)[C@H](CC(=O)O)NC(=O)[C@@H](N)CC(=O)O)C(=O)N[C@@H](CC(=O)O)C(=O)N[C@@H](CC(C)C)C(=O)N[C@H](C(=O)N[C@@H](Cc1ccccc1)C(=O)N[C@@H](Cc1c[nH]cn1)C(=O)N[C@@H](CC(C)C)C(=O)N[C@@H](CC(C)C)C(=O)N[C@@H](CCCNC(=N)N)C(=O)N[C@H](C(=O)N[C@@H](CC(C)C)C(=O)N[C@@H](CC(C)C)C(=O)N[C@@H](CCC(=O)O)C(=O)N[C@@H](CC(C)C)C(=O)N[C@@H](C)C(=O)N[C@@H](CCCNC(=N)N)C(=O)N[C@H](C(=O)N[C@@H](CCC(N)=O)C(=O)N[C@@H](CO)C(=O)N[C@@H](CCC(N)=O)C(=O)N[C@@H](CCCNC(=N)N)C(=O)N[C@@H](CCC(=O)O)C(=O)N[C@@H](CCCNC(=N)N)C(=O)N[C@@H](C)C(=O)N[C@@H](CCC(=O)O)C(=O)N[C@@H](CCC(N)=O)C(=O)N[C@@H](CC(N)=O)C(=O)N[C@@H](CCCNC(=N)N)C(=O)N[C@H](C(=O)N[C@H](C(=O)N[C@@H](Cc1ccccc1)C(=O)N[C@@H](CC(=O)O)C(=O)N[C@@H](CO)C(=O)N[C@H](C(N)=O)C(C)C)[C@@H](C)CC)[C@@H](C)CC)[C@@H](C)O)[C@@H](C)O)[C@@H](C)O [SEQ ID NO: 114, DDPPLSIDLTFHLLRTLLELARTQSQRERAEQNRIIFDSV-NH2] | – | – | 0.91 ± 0.27 | – | – | 1.15 | 99.61 |
